# Reference: the Deep4Chem optical property database
# Assay: solvent given as SMILES
structure (smiles),measurement,setting,value
CN(C)c1ccc(C2=Nc3scc[n+]3[B-](F)(F)O2)cc1,emission maximum,in C1CCOC1,454 nm
same,emission maximum,in CC#N,469 nm
same,emission maximum,in Cc1ccccc1,439 nm
same,emission maximum,in ClCCl,453 nm
c1ccc(-c2cc3cc4ccccc4cc3p2-c2ccccc2)cc1 (stereo not drawn),emission maximum,in ClCCl,429 nm
c1cc(-c2ccc3sc4ccccc4c3c2)cc(-c2cc(-c3cccc(-c4ccc5sc6ccccc6c5c4)c3)ncn2)c1,emission maximum,in ClCCl,411 nm
[O-][n+]1c(-c2ccccc2)cc(N2CCOCC2)nc1/C=C/c1ccccc1,emission maximum,in ClCCl,548 nm
Cc1ccc(-c2ccc(-c3ccc(C)cc3)c(/C(=C(/c3ccccc3)c3cc(-c4ccc(C)cc4)ccc3-c3ccc(C)cc3)c3ccccc3)c2)cc1,emission maximum,in C1CCOC1,492 nm
C=CCNc1ccc2c(ccc3oc4cc(=[N+](C)C)ccc-4nc32)c1,emission maximum,in CC#N,654 nm
same,emission maximum,in CCO,650 nm
same,emission maximum,in ClCCl,645 nm
same,emission maximum,in O,660 nm
C(=C\c1cccc2ccccc12)/c1ccc(-c2nnc(-c3ccc(-c4cc5ccccc5s4)cc3)o2)cc1,emission maximum,in CC#N,441 nm
same,emission maximum,in CC(C)=O,437 nm
same,emission maximum,in CCCCCCCC,426 nm
same,emission maximum,in CCCCCCCCCCO,437 nm
same,emission maximum,in CCCCCCCCO,436 nm
same,emission maximum,in CCCCCO,438 nm
same,emission maximum,in CCCO,441 nm
same,emission maximum,in CN(C)C=O,447 nm
same,emission maximum,in CO,448 nm
same,emission maximum,in CS(C)=O,455 nm
CN(C)c1ccc(/C=C/c2cnc3ccccc3n2)cc1,emission maximum,in C1CCOC1,556 nm
same,emission maximum,in CC#N,611 nm
same,emission maximum,in CCCCCCC,468 nm
same,emission maximum,in CS(C)=O,622 nm
same,emission maximum,in ClCCl,570 nm
COc1ccccc1C1=[N+]2C(=Cc3c4cc5ccccc5cc4c(-c4ccccc4OC)n3[B-]2(F)F)c2cc3ccccc3cc21,emission maximum,in C1CCOC1,760 nm
CN1CCN(CCCN2c3ccccc3Sc3ccc(Cl)cc32)CC1,emission maximum,in CC#N,449 nm
same,emission maximum,in CO,449 nm
same,emission maximum,in O,457 nm
CCOC(=O)c1c(C(=O)OC)c(-c2cc3cc(OC)ccc3oc2=O)nn1-c1ccccc1,emission maximum,in ClCCl,451 nm
N#CC1=c2c3cccc4c(Br)ccc(c43)n2[B-](F)(F)[n+]2ccccc21,emission maximum,in C1CCOC1,545 nm
same,emission maximum,in CC#N,541 nm
same,emission maximum,in CCCCCC,545 nm
same,emission maximum,in Cc1ccccc1,550 nm
same,emission maximum,in ClCCl,546 nm
F[B-]1(F)n2cccc2C(c2ccccc2)=C2C=CC(c3cccc(OC4=[N+]5C(=C(c6ccccc6)c6cc(Br)c(-c7ccc[nH]7)n6[B-]5(F)F)C=C4Br)c3)=[N+]21,emission maximum,in ClC(Cl)Cl,644 nm
COCCN(CCOC)c1ccc(/C=C/c2sc3c4nc(C)sc4ccc3[n+]2C)cc1,emission maximum,in CO,601 nm
same,emission maximum,in ClC(Cl)Cl,601 nm
O=C1CC(c2ccc(F)cc2)c2c(c3ccccc3c3nc4ccccc4nc23)O1 (stereo not drawn),emission maximum,in ClC(Cl)Cl,437 nm
COc1cc(OC)c2c(c1)C(=O)c1cc(OC)cc(OC)c1-2,emission maximum,in C1CCCCC1,585 nm
C(=C\c1ncnc2ccccc12)/c1ccc(N2CCCCC2)cc1,emission maximum,in C1CCCCC1,480 nm
same,emission maximum,in C1CCOC1,540 nm
same,emission maximum,in CC#N,579 nm
same,emission maximum,in CS(C)=O,589 nm
same,emission maximum,in ClCCl,558 nm
F[B-]1(F)n2c(cc3c4ccccc4c4ccccc4c32)-c2ccc3ccccc3[n+]21,emission maximum,in ClCCl,585 nm
Nc1ccc2ccc3cccc4ccc1c2c34,emission maximum,in CC#N,425 nm
same,emission maximum,in CCCCOCCCC,417 nm
same,emission maximum,in CO,428 nm
O=Cc1ccc(-c2ccc(-c3nc4ccccc4s3)c(O)c2)o1,emission maximum,in CCO,530 nm
same,emission maximum,in ClCCl,526 nm
same,emission maximum,in O,563 nm
N#Cc1ccc(/C=C2\N=C(c3ccccc3)OC2=O)cc1,emission maximum,in C1COCCO1,426 nm
COc1ccc(-c2oc3cccc4c5c(-c6ccc(OC)cc6)c(=N)oc6cccc(c2c34)c65)cc1,emission maximum,in ClC(Cl)Cl,505 nm
CC(=O)c1c2c(c(C(C)=O)c3c1OC(CC(=O)O)O3)OCO2,emission maximum,in CC#N,553 nm
C#CCOc1ccc(/C=C/C2=[N+]3C(=C(c4ccc(N(CC)CC)cc4)c4c(C)cc(/C=C/c5ccc(S(=O)(=O)O)cc5S(=O)(=O)O)n4[B-]3(F)F)C(C)=C2)cc1,emission maximum,in O,660 nm
